How the values were obtained:
[1] = system: 3T3-L1-derived white adipocytes; experiment: Lipolysis assay, 3T3-L1-derived white adipocytes alone; type: cell-based, mouse; conditions: 10 μM isoproterenol; differentiated adipocytes alone
Protocol: 3T3-L1 were seeded at 20×10^3 cells/cm^2 and fed until 80% confluency, which was defined as day 0. From day 0-3, cells were fed with the differentiation medium containing DMEM (Gibco, 11965118), 10% FBS, 0.5 mM IBMX (Cayman, 13347), 1 μM dexamethasone (Sigma, D2915), and 10 μg/ml insulin (Sigma, 19278). From day 3-6, cells were fed with post-differentiation medium containing DMEM, 10% FBS, and 10 μg/ml insulin. After day 6, cells were maintained in DMEM with 10% FBS until the desired timepoints. To begin with, adipocyte culture medium was replaced with prewarmed lipolysis medium containing 0.5% BSA in DMEM, and cells were incubated for 4 hours at 37° C. After 4 hours, the lipolysis medium was replaced with fresh prewarmed lipolysis medium with test drugs and incubate for 90 minutes at 37° C. […] Glycerol release in adipocyte cultured medium was measured using Adipolysis Assay Kit (Cayman, 10009381) according to manufacturer's instruction.

[2] = system: 3T3-L1-derived white adipocytes; experiment: Lipolysis assay, white adipocytes with or without parasymN co-culture; type: cell-based, mouse
Protocol: To begin with, adipocyte culture medium was replaced with prewarmed lipolysis medium containing 0.5% BSA in DMEM, and cells were incubated for 4 hours at 37° C. After 4 hours, the lipolysis medium was replaced with fresh prewarmed lipolysis medium with test drugs and incubate for 90 minutes at 37° C. Then, the cell culture medium was collected for the assay or stored at −20° C. for long-term storage. Glycerol release in adipocyte cultured medium was measured using Adipolysis Assay Kit (Cayman, 10009381) according to manufacturer's instruction.
To test whether adipose functions can be regulated by parasymN activity, the lipolytic activity was compared.

hPSC-parasymNs = experiment: MEA neural activity of hPSC-parasymNs; type: cell-based, human; conditions: for parasymN activity (relative MFR: mean firing rate): 1 μM vs control, day 30 hPSC-parasymNs
Protocol: (§2) For neural activity measurements, day 16 SCPs were plated on PO/LM/FN coated MEA plates (Axion BioSystems, BioCircuit or CytoView) at 100×10^3 cells/cm^2. […] Activity of differentiated parasymNs or CMs/SMCs on desired timepoints was measured using a MEA plate reader (Axion BioSystems, Maestro Pro) under the neural detection mode or cardiac detection mode, respectively, according to manufacturer's instruction.

hPSC-symNs = experiment: MEA neural activity of hPSC-symNs; type: cell-based, human; conditions: 6-OHDA 100 μM, normalized to vehicle
Protocol: as §2

symN = experiment: 6-OHDA toxicity in symN (western blot, immunostaining, microscopy); type: cell-based, human
Protocol: Day 30 parasymNs and symNs on 6-well plates were prepared for sample collection. One well for each sample. Cells were washed by PBS and scraped after incubating with lysis buffer contains RIPA buffer (Sigma-Aldrich, R0278, 1×), PMSF protease inhibitor (Thermo Fisher Scientific, 36978, 1 mM) and PhosSTOP phosphatase inhibitor (Sigma-Aldrich, 4906845001). Protein concentration was measured using Bradford reagent (Bio-Rad, 5000006). Proteins were loaded as 20 μg/well and ran in 12% acrylamide gel. After the transfer, nitrocellulose membranes were blocked by 5% skim milk in TBST.
Membranes were incubated with primary antibodies overnight at 4° C. The next day, membranes were washed by PBST and incubated with secondary antibodies for one hour at room temperature. Images were taken using the iBright western blot imager (Invitrogen, FL1500).
(§1) Cells were fixed by 4% paraformaldehyde for 20 minutes and washed twice by PBS. Fixed cells were permeabilized by 0.3% Triton, 1% BSA and 3% goat or donkey serum in 1× PBS for 20 minutes, and incubated with primary antibodies overnight at 4° C. The next day, cells were washed and incubated with secondary antibodies for one hour at room temperature. Lastly, cells were washed and incubated with DAPI (Sigma, D9542, 1:1000) for 15 minutes at room temperature. Fluorescent images were taken using the Lionheart FX Automated Microscope.

parasymN = experiment: 6-OHDA toxicity in parasymN (microscopy); type: cell-based, human; conditions: parasymN after 6-OHDA
Protocol: as §1

mouse salivary cell = experiment: Calcium imaging of parasymN and mouse salivary cell coculture; type: cell-based; conditions: coculture with parasymN; nicotine stimulation
From the text: FIG. 14B is a plot showing calcium imaging for salivary cell only upon nicotine stimulation.

hPSC-CMs = conditions: nicotine 1 μM; co-culture with hPSC-parasymNs; MEA
Protocol: CM differentiation. […] Briefly, 80-90% confluent H9 ESCs were replated at a 1 to 5 ratio on Matrigel (Corning, 1:20)-coated plates. When cells reached 90% confluency, medium was changed to CDBM base medium, that contains DMEM/F12 (Gibco, 11320033), 64 mg/L ascorbic acid, 13.6 μg/L sodium selenium (Sigma, S5261), 10 μg/ml transferrin (Sigma, T3309) and Chemically Defined Lipid Concentrate (Gibco, 11905031). 5 μM CHIR99021 was added to CDBM medium on day 0. 0.6 U/ml heparin ([sequence] Technologies, 07980) was added to CDBM medium on day 1, 5, 6. 0.6 U/ml heparin and 3 μM XAV were added to CDBM medium on day 2, 3, 4. After day 7, medium was changed to CM maintenance medium that contains CDBM base, 20 μg/ml insulin (Sigma, 1-034), and 2% FBS. CMs were replated on day 10 using accutase at 200×10^3 cells/cm^2 on Matrigel-coated plates. […]
as §2

[3] = system: non-neural contaminating cell types; experiment: Purification of non-neural contaminating cells in parasymN differentiation; type: cell-based, human; conditions: AraC added during the differentiation
Protocol: FIG. 13A illustrates that cell cycle inhibitor AraC was added during the differentiation.

CC(C)NCC(O)c1ccc(O)c(O)c1 (stereo not shown) [isoproterenol]
lipolytic activity (glycerol release) [1]: displayed lipolytic activity | lipolytic levels induced by isoproterenol (normalized glycerol release) ([2]; 10 μM isoproterenol, adipocytes co-cultured with parasymNs): counteracted

CC(C[N+](C)(C)C)OC(N)=O (stereo not shown) [BeCh, bethanechol]
parasymN activity (relative MFR: mean firing rate) (hPSC-parasymNs; MEA): activated

angiotensin II (DRVYIHPF; Angiotensin-2; UniProt P01019 25-32, looked up) [Ang II, angiotensin II of the renin-angiotensin-aldosterone system]
parasymN activity (fold change of MFR) (hPSC-parasymNs; angiotensin II vs control (DMSO), MEA): decreased

NCCc1cc(O)c(O)cc1O [6-OHDA]
relative MFR over 12 hours after 6-OHDA (hPSC-parasymNs; 6-OHDA 100 μM, hPSC-parasymNs, normalized to vehicle): remained unaffected | relative MFR over 12 hours after 6-OHDA (hPSC-symNs): displayed early hyperactivity | cell death markers PUMA/c-Cas3, western blot (symN; 12 hours after treating parasymN/symN with 6-OHDA): increased only in symN | cell death marker c-Cas3, percentage of cells by immunostaining (symN; 24 hours after treating parasymN/symN with 6-OHDA): increased only in symN | neural morphology by microscopy (symN; symN after 6-OHDA): damaged neural morphology | neural morphology by microscopy (parasymN): almost intact

CN1[C@@H]2CC[C@H]1C[C@@H](OC(=O)C(CO)c1ccccc1)C2 (stereo partly shown) [atropine]
parasymN activity (relative MFR: mean firing rate) (hPSC-parasymNs; MEA): inactivated

CN1CCCC1c1cccnc1 (stereo not shown) [nicotine]
parasymN activity (relative MFR: mean firing rate) (hPSC-parasymNs; MEA): further inducible | lipolysis levels (glycerol release) ([2]; 1 μM nicotine, adipocytes only or parasymN co-cultured): remained unchanged | salivary cell activity (calcium imaging) (mouse salivary cell): increased | beating of hPSC-CMs (relative beats/min) (hPSC-CMs): decreased

Nc1ccn([C@@H]2O[C@H](CO)[C@@H](O)[C@@H]2O)c(=O)n1 [AraC]
contaminating cells by immunostaining [3]: reduced

Source: patent US20240150709A1, “COMPOSITIONS AND METHODS FOR MAKING PARASYMPATHETIC NEURONS” (University of Georgia Research Foundation, Inc., priority 2022, published 2024)
